Where “and” joins values, the source holds several entries; their conditions need not be identical. Equal values may be shown once.
How the values were obtained:
S. typhi = assay: Antibacterial agar well diffusion; format: cell-based, Salmonella typhi (ATCC0650); details: 6.25 mg/mL per well, 37 °C, 24 h; for zone of inhibition at 6250 µg/mL: Salmonella enterica, TYPHI
Description: (§1) The antibacterial assay was done for all compounds (1–6) as described in previous studies. The mean number of viable organisms per milliliter of stock suspensions containing Escherichia coli (ATCC25922), Pseudomonas aeruginosa (ATCC27853), Salmonella typhi (ATCC0650), and Staphylococcus aureus (NCTC25953) was uncovered using the surface viable counting method. Preparations of suspensions containing approximately 108–109 colony forming units (CFU) per milliliter were made. Aseptic nutritional agar was formulated and transferred onto petri dishes. Cultures of bacteria were uniformly distributed on agar surface using sterile brush sticks. Five wells, each with a diameter of 6 mm, were made in each plate using a sterile borer. Afterwards, a concentration of 6.25 mg/mL of each component was applied to separate wells. Cephradine, a readily accessible antibiotic, was employed as a reference standard at an equivalent concentration. Following sealing, the agar dishes were incubated at a controlled temperature of 37 °C for a period of 24 h. The zone of inhibition in the plates was determined, which represents the inhibition of bacterial growth. Each sample zone of inhibition diameter was evaluated, and the antibacterial effectiveness of each drug was quantified according to the mean diameter of the inhibition zone (in millimetres).

[1] = DPPH free radical scavenging assay; format: biochemical
Experimental: (§2) In accordance with the procedure described in the literature, the ABTS activity assay was applied to evaluate the free radical scavenging capabilities of the synthesized compounds (1–6). ABTS solution was prepared by mixing 7 mM ABTS and 2.45 mM potassium persulfate and was then placed for 16 h under dark at room temperature. A methanol dilution was performed on the solution to achieve an absorbance of 0.706 ± 0.001 at 734 nm before starting the assay. To quantify the assay, 3 mL of the ABTS solution has been added to different concentrations (ranging from 62.5 to 1000 μg/mL) of every compound (300 μL) that were dissolved in methanol. Then after 1 min of incubation, the absorbance was continuously measured for 5 min. To confirm precision, all experiments were conducted in triplicate. The antioxidant capacities of the compounds were assessed with gallic acid as a reference, and the ability to remove free radicals was calculated as a percentage for each compound employing Equation.1 as presented below. Additionally, the DPPH free radical scavenging method was employed to assess the antioxidant activity of compounds (1–6), in accordance with a widely recognized procedure documented in existing literature. Concentrations ranging from 62.5 to 1000 μg/mL of compounds (1–6), dissolved in methanol, were introduced into a 2 mL solution of DPPH (0.002 % in methanol). The resulting solutions were kept in the dark at room temperature for a duration of 30 min. The amount of light absorbed by the solutions was then determined using a UV/vis spectrophotometer at a wavelength of 517 nm. The investigations were performed three times, using the exact protocol described for the ABTS scavenging assay. Afterwards, the antioxidant capabilities of each molecule were assessed using calculation.(1) Scavengingactivity(%)=A−B/A×100
(§3) Where, A = absorbance of ABTS/DPPH and B = absorbance of solution containing ABTS/DPPH and test samples.

[2] = ABTS free radical scavenging assay; format: biochemical
Experimental: as §2, §3

P. aeruginosa = assay: Antibacterial agar well diffusion; format: cell-based, Pseudomonas aeruginosa (ATCC27853); details: Pseudomonas aeruginosa, 24 h, 6.25 mg/mL per well, 37 °C
Description: as §1

[3] = biological target: T1, acetylcholinesterase (AChE) (Electrophorus electricus, UniProt O42275); assay: biochemical; details: for inhibition at 62.5 µg/mL / inhibition at 125 µg/mL / inhibition at 250 µg/mL / inhibition at 500 µg/mL / inhibition at 1000 µg/mL: read-out: AChE Percent inhibition
T1 construct: The AChE was derived from the electric eel, while BChE was obtained from equineserum; from tissue; host or cells: electric eel (tissue not specified)
T1 sequence (O42275 24-633): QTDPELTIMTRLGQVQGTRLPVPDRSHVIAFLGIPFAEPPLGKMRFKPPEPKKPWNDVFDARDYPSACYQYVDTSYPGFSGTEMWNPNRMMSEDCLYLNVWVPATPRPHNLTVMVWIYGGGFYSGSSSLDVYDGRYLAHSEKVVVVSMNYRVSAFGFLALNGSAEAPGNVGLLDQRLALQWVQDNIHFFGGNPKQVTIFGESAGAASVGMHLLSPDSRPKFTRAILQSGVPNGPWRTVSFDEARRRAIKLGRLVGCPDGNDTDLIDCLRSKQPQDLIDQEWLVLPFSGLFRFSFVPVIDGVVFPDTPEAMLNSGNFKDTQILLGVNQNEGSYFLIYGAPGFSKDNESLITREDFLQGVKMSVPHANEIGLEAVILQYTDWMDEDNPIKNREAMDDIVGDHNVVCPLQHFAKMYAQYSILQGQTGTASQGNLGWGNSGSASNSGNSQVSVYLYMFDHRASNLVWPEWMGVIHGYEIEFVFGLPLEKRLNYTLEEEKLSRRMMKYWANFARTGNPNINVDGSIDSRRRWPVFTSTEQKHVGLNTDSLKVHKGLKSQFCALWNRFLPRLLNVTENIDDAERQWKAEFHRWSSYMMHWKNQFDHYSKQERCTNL
Experimental: (§4) This assay employed two enzymes, namely acetylcholinesterase (AChE) and butyryl cholinesterase (BChE). The AChE was derived from the electric eel, while BChE was obtained from equineserum. The synthesized compounds were dissolved in phosphate buffer (0.1 M, pH 8.0). The enzymes AChE (518 U/mg) and BChE (7–16 U/mg) were diluted in a 0.1 M phosphate buffer to achieve concentrations of 0.03 U/mL and 0.01 U/mL, respectively. Preparations of ATchI (0.5 mM), DTNB (0.2273 mM), and BTchI (0.5 mM) were made in distilled water and stored at a low temperature of 8 °C. […] The solution was heated to 30 °C for 15 min, followed by the gradual addition of the substrate. Absorbance of the heated sample at 412 nm was measured using a double beam spectrophotometer. […] The percentage activity (A) and inhibition of the enzyme were determined by applying the rate of absorption as a function of time (V=ΔAbs/Δt) using the following equation (Equation (2)).(2) %Inhibition=V/Vmax×100 Where V = enzyme inhibition activity of products and Vmax = enzyme activity without test of product.

E. coli = assay: Antibacterial agar well diffusion; format: cell-based, Escherichia coli (ATCC25922); details: Escherichia coli, 24 h, 6.25 mg/mL per well, 37 °C
Description: as §1

[4] = biological target: T2, butyryl cholinesterase (BChE) (Equus caballus, UniProt P81908); assay: Anticholinesterase assay (Elman's test), BChE; format: biochemical; details: for inhibition at 62.5 µg/mL / inhibition at 125 µg/mL / inhibition at 250 µg/mL / inhibition at 500 µg/mL / inhibition at 1000 µg/mL: read-out: BChE Percent inhibition
T2 construct: The AChE was derived from the electric eel, while BChE was obtained from equineserum; from tissue; host or cells: equine serum
T2 sequence (P81908 whole entry): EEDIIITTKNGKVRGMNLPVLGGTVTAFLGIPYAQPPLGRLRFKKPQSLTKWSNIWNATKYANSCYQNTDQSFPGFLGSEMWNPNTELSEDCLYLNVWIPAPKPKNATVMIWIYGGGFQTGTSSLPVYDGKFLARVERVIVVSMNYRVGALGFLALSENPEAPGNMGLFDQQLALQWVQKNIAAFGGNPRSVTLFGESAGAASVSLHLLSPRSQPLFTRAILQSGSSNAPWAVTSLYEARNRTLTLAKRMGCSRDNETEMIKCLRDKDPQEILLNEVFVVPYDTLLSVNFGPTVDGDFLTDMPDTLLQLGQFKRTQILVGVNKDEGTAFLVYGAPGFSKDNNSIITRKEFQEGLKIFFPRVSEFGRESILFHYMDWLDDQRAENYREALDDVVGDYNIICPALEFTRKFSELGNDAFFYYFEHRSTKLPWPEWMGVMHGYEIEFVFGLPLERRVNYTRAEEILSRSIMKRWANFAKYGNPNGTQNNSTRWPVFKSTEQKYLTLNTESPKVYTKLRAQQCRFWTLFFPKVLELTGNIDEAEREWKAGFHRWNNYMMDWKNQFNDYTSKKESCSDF
Experimental: as §4

S. flexenari = assay: Antibacterial agar well diffusion; format: cell-based; details: 24 h, 6.25 mg/mL per well, 37 °C

SMILES | zone of inhibition at 6250 µg/mL (S. typhi) [mm] | DPPH IC50 [1] [µg/mL] | DPPH %inhibition ([1]; 62.5 μg/mL) [%] | DPPH %inhibition ([1]; 125 μg/mL) [%] | DPPH %inhibition ([1]; 250 μg/mL) [%] | DPPH %inhibition ([1]; 500 μg/mL) [%] | DPPH %inhibition ([1]; 1000 μg/mL) [%] | ABTS IC50 [2] [µg/mL] | ABTS %inhibition ([2]; 62.5 μg/mL) [%] | ABTS %inhibition ([2]; 250 μg/mL) [%] | ABTS %inhibition ([2]; 500 μg/mL) [%] | ABTS %inhibition ([2]; 1000 μg/mL) [%] | zone of inhibition at 6250 µg/mL (P. aeruginosa) [mm] | IC50 [3] [µM] | inhibition at 62.5 µg/mL [3] [%] | inhibition at 125 µg/mL [3] [%] | inhibition at 250 µg/mL [3] [%] | inhibition at 500 µg/mL [3] [%] | inhibition at 1000 µg/mL [3] [%] | zone of inhibition at 6250 µg/mL (E. coli) [mm] | also measured
CC1=C(C(=O)O)N2C(=O)[C@@H](NC(=O)[C@H](N)C3=CCC=CC3)[C@H]2SC1 [Std.Drug, Cephradine, reference compound] | 15 | – | – | – | – | – | – | – | – | – | – | – | – | – | – | – | – | – | – | – | Zone of inhibition (S. typhi): 25 mm and 20 mm and 14 mm and 13 mm
O=C(O)c1cc(O)c(O)c(O)c1 [Gallic acid, gallic acid, reference compound] | – | 27.06 | 57.54 ± 0.46 | 63.83 ± 1.07 | 69.47 ± 0.46 | 75.45 ± 0.45 | 81.45 ± 0.65 | 39.54 | 51.68 ± 0.22 | 66.43 ± 0.29 | 71.88 ± 0.20 | 75.89 ± 0.20 | – | – | – | – | – | – | – | – | ABTS %inhibition ([2]; 125 μg/mL): 59.84 ± 0.32%
S=C(Nc1ccc(Cl)cc1)NC1CCCCC1 [Compound 4, 1-(4-chlorophenyl)-3-cyclohexylthiourea] | 11.5 | 67.11 | 48.18 ± 2.31 | 54.67 ± 2.08 | 63.74 ± 0.81 | 72.29 ± 0.27 | 82.11 ± 1.20 | 67.01 | 48.19 ± 1.26 | 61.14 ± 1.43 | 71.03 ± 1.61 | 81.23 ± 1.01 | 10 | 928 | 31.9 ± 0.48 | 39 ± 0.48 | 47.9 ± 0.96 | 61.6 ± 1.34 | 69.6 ± 1.12 | 12 | IC50 [4]: 814 µM; inhibition at 62.5 µg/mL [4]: 33 ± 1.15%; inhibition at 125 µg/mL [4]: 42.7 ± 0.89%; inhibition at 250 µg/mL [4]: 49 ± 0.58%; inhibition at 500 µg/mL [4]: 63.03 ± 0.23%; inhibition at 1000 µg/mL [4]: 71.33 ± 0.49%; zone of inhibition at 6250 µg/mL (S. flexenari): 13 mm
Cc1ccc(NC(=S)NC2CCCCC2)c(C)c1 [Compound 3, 1-cyclohexyl-3-(2,4-dimethylphenyl) thiourea] | 8.5 | 118.05 | 46.72 ± 2.13 | 51.88 ± 1.29 | 62.53 ± 1.11 | 71.19 ± 1.27 | 80.38 ± 1.10 | 115.07 | 46.06 ± 1.86 | 62.14 ± 1.30 | 71.16 ± 2.10 | 80.11 ± 1.01 | 13.5 | 548 | 43.7 ± 0.66 | 49.7 ± 0.35 | 53.1 ± 0.62 | 59.01 ± 0.42 | 65.5 ± 2.26 | 11 | IC50 [4]: 468 µM; inhibition at 62.5 µg/mL [4]: 44.29 ± 0.43%; inhibition at 125 µg/mL [4]: 50.23 ± 0.44%; inhibition at 250 µg/mL [4]: 55.8 ± 1.07%; inhibition at 500 µg/mL [4]: 61.87 ± 0.39%; inhibition at 1000 µg/mL [4]: 67.44 ± 0.09%; zone of inhibition at 6250 µg/mL (S. flexenari): 10 mm

From paper PMC11141368, “Antioxidant, antibacterial, enzyme inhibition and fluorescence characteristics of unsymmetrical thiourea derivatives” (Heliyon, 2024)
